Numbered stars: 1 amine (or outer) side, 2 acyl side, 3 side chain; on linkers, the order of the positions; unused ones are H or OH. Bridge positions count the residues as written; N and C are the ends. Square brackets hold non-standard residues; d marks the D form. Peptide text beside a SMILES is read from it. ξ: configuration not given here. ξαMeNle(6-ylidene) = CC(CCCC=[*:3])(N[*:1])C(=O)[*:2]; Nle = CCCC[C@H](N)C(=O)O

The subject of test [1] is GFP-positive INA-6 cells in human bone chips of SCID-hu mice. The experiment in a line: SCID-hu murine model of human MM. In kind it is in vivo. The settings on record: for shuIL-6R serum levels: 5 mg/kg local injection every other day; for tumor cell invasion outside the bone chip: histologic analysis. How it is done:
In a second in vivo model, the impact of SAH-BCL9B treatment on the growth of INA-6 MM cells within a human bone graft implanted in the flank of SCID-hu mice was examined (Tassone, P. et al. Blood 106, 713-6 (2005)). GFP-labeled INA-6 cells (5×10^6), which express both BCL9 and β-catenin and are suppressed by SAH-BCL9B in vitro were injected into bone grafts four weeks after implantation. Two days later, cohorts of mice (n=5) were treated by local injection with vehicle (2.5% DMSO in D5W), SAH-BCL9B, or SAH-BCL9B(R359E) peptides (5 mg/kg) for a total of 10 doses administered every other day. To monitor tumor burden, the serum level of soluble human interleukin-6 receptor (shuIL-6R) was measured, which is first detectable 3-4 weeks after INA-6 tumor engraftment. […] Mice were sacrificed 33 days after INA-6 cell injection and evaluated for MM tumor burden by fluorescence imaging, histologic analysis, and anti-CD34 staining. […] Similar to the CRC model, local angiogenesis was suppressed in SAH-BCL9B-treated SCID-hu mice, as monitored by anti-CD34 staining and blood vessel quantitation (FIG. 4I).
For the SCID-hu murine model of human MM, human fetal bone grafts measuring 1.5×0.5 cm were subcutaneously implanted into eight week old male CB-17 SCID mice (Taconic) as previously described (Tassone, P. et al. Blood 106, 713-6 (2005)). Four weeks after bone implantation, 5×10^6 GFP-positive INA-6 MM cells were injected directly into each bone implant. Two days later, mice were treated with 100 μl injections of vehicle (2.5% DMSO in D5W) or SAH-BCL9 peptides (5 mg/kg) instilled adjacent to the bone chips on alternate days for a total of 10 doses. Mouse sera were serially monitored for shuIL-6R levels by ELISA (R&D Systems). Thirty-three days after tumor cell injection, the mice were sacrificed and analyzed for tumor burden by fluorescence imaging and histologic analysis of the bone grafts. See results in FIG. 4A-FIG. 4I. In addition, TUNEL staining was performed on samples obtained from the mice. […] See results in FIG. 22 and FIG. 23. All animal experiments were performed in accordance with approved protocols of the Dana-Farber Cancer Institute Animal Care and Use Committee.

The subject of test [2] is Wnt-dependent reporter activity (TOP-FLASH) in Colo320 cells. The experiment in a line: Wnt-specific TCF reporter gene assay (TOP-FLASH dual luciferase). In kind it is cell-based. To be noted: Colo320, normalized to Renilla. How it is done:
Luciferase activity was measured using the Dual Luciferase Reporter Assay System (Promega) as previously described (Sukhdeo, K. et al. Proc Natl Acad Sci USA 104, 7516-21 (2007)). To measure Wnt or NFκB reporter activity, Colo320 cells were transfected with TOP-FLASH, FOP-FLASH plasmid (Millipore Corporation) or NFκB luciferase reporter (Stratagene), along with an internal Renilla control plasmid (hRL-null). Transfection was accomplished using FuGENE (Roche) according to the manufacturer's protocol. The results were normalized to control Renilla activity. The reported data represent the average of three independent transfection experiments performed in triplicate. See results in FIG. 9, FIG. 10.

The subject of a further test is Colo320 cells. In words: Cellular invasion assay, Matrigel Boyden chambers. Type of test: cell-based. The settings on record: 5 μM. How it is done:
Angiogenesis was evaluated as previously described (Mani, M. et al. Cancer Res 69, 7577-86 (2009)) using an in vitro angiogenesis assay kit (Millipore). For capillary tube formation analysis, HUVEC were cultured on polymerized matrix gel and exposed to supernatant media collected from Colo320 or MM1S cells treated with vehicle (0.5% DMSO), SAH-BCL9B peptides (5 μM) for 24 h. The number of capillary tubes formed after 5 h treatment at 37° C. was determined by counting 5 randomly selected fields at 40× magnification, according to manufacture's instructions. HUVEC cultured in VEGF media and VEGF-free media were used as positive and negative controls, respectively. Cellular invasion assays were performed using Matrigel Boyden chambers (BD Biosciences) as described (Mani, M. et al. Cancer Res 69, 7577-86 (2009)). The reported data represent the average of three independent experiments performed in triplicate. See results in FIG. 3H-FIG. 3I.

In the case of “SAH-BCL9B(R359E): SEQ ID NO: 7: LSQEQLEHEERSLXTLRXIQRBLF; reverse polarity point mutant, negative control of SAH-BCL9B”, the shuIL-6R serum levels entry in test [1] (10 doses) is given as “progressive increase in shuIL-6R levels”. Also, the “tumor cell invasion outside the bone chip” value in test [1] (day 33) was “invasion into the surrounding soft tissue”. Besides, in test [2], the “reduction of Wnt-specific TCF reporter activity” value is listed as “no effect”. The “migration through Matrigel Boyden chambers” value in the test with Colo320 cells is given as “no effect”.

As to `CCCC[C@H](NC(=O)[C@H](CCCNC(=N)N)NC(=O)[C@H](CCC(N)=O)NC(=O)[C@@H](NC(=O)C1(C)CCCC=CCCCC(C)(NC(=O)[C@H](CC(C)C)NC(=O)[C@H](CO)NC(=O)[C@H](CCCNC(=N)N)NC(=O)[C@H](CCC(=O)O)NC(=O)[C@H](CCCNC(=N)N)NC(=O)[C@H](Cc2c[nH]cn2)NC(=O)[C@H](CCC(=O)O)NC(=O)[C@H](CC(C)C)NC(=O)[C@H](CCC(N)=O)NC(=O)[C@H](CCC(=O)O)NC(=O)[C@H](CCC(N)=O)NC(=O)[C@H](CO)NC(=O)[C@H](CC(C)C)NC(C)=O)C(=O)N[C@@H]([C@@H](C)O)C(=O)N[C@@H](CC(C)C)C(=O)N[C@@H](CCCNC(=N)N)C(=O)N1)[C@@H](C)CC)C(=O)N[C@@H](CC(C)C)C(=O)N[C@@H](Cc1ccccc1)C(N)=O` (some centres unmarked) [SAH-BCL9B] (Ac-LSQEQLEHRERSL[ξαMeNle(6-ylidene)]TLR[ξαMeNle(6-ylidene)]IQR[Nle]LF-NH2; staple 14-18), in test [1] (10 doses), the shuIL-6R serum levels result is given as “low to undetectable levels”. Besides, the “local angiogenesis (anti-CD34 staining, blood vessel quantitation)” value in test [1] (5 mg/kg local, 10 doses) is given as “suppressed”. In test [1] (5 mg/kg local, 10 doses, day 33), the “tumor burden within the bone chip” value is given as “significantly reduced”. For the same compound, the “TUNEL positivity in myeloma tumor tissue” value in test [1] (bone chips bearing INA-6 cells) is “notably increased TUNEL positivity”. Further, the “tumor cell invasion outside the bone chip” value in test [1] (day 33) was “resided within the confines of the bone chip”. Besides, the “reduction of Wnt-specific TCF reporter activity” value in test [2] is roughly 50%. For the same compound, in the test with Colo320 cells, the “migration through Matrigel Boyden chambers” value is “blocked the migration”.

Source of the values: patent US12534501B2, “Targeting deregulated Wnt signaling in cancer using stabilized alpha-helices of BCL-9” (Dana-Farber Cancer Institute, Inc., priority 2011, dated 2026).
